Source: US6525001B1, “Substituted pyrimidine and pyridine herbicides” (Mid-American Commercialization Corporation, priority 1997, dated 2003)

Assays:
Assay type in all cases: in vivo
[1] = system: barnyardgrass (Echinochloa crus-galli); test: Test E pre-/postemergence/post directed; conditions: PREEMERGENCE
Procedure, shortened: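 Three application modes in greenhouse pots: preemergence soil spray, postemergence foliar spray at two to four leaves, and post-directed spray to soil and plant base. Ratings of 0–100 injury, assigned visually against untreated controls 13 to 21 days later.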

[2] = system: galium 2 (Galium aparine); test: Test D; conditions: POSTEMERGENCE
Method: (§1) Compounds evaluated in this test were formulated in a non-phytotoxic solvent mixture which included a surfactant and applied to plants that were in the 1- to 4-leaf stage (postemergence application). A mixture of sandy loam soil and greenhouse potting mix in a 60:40 ratio was used for the postemergence test.
(§2) Plantings of these crops and weed species were adjusted to produce plants of appropriate size for the postemergence test. All plant species were grown using normal greenhouse practices. Crop and weed species include alfalfa (Medicago sativa), annual bluegrass (Poa annua), blackgrass (Alopecurus myosuroides), black nightshade (Solanum nigra), chickweed (Stellaria media), common poppy (Papaver rhoeas), deadnettle (Lamium amplexicaule), downy brome (Bromus tectorum), field violet (Viola arvensis), galium 2 (Galium aparine), green foxtail (Setaria viridis), Italian ryegrass (Lolium multiflorum), jointed goatgrass (Aegilops cylindrica), kochia (Kochia scoparia), lambsquarters (Chenopodium album), lentil (Lens culinaris), littleseed canarygrass (Phalaris minor), pea (Pisum sativum), potato (Solanum tuberosum), rape (Brassica napus), redroot pigweed (Amaranthus retroflexus), Russian thistle (Salsola kali), scentless chamomile (Matricaria inodora), sorghum (Sorghum vulgare), spring barley (Hordeum vulgare), sugar beet (Beta vulgaris), sunflower (Helianthus annuus), ivyleaf speedwell (Veronica hederaefolia), spring wheat (Triticum aestivum), winter wheat (Triticum aestivum), wild buckwheat (Polygonum convolvulus), wild mustard (Sinapis arvensis), wild oat (Avena fatua), windgrass (Apera spica-venti) and winter barley (Hordeum vulgare).
(§3) Treated plants and untreated controls were maintained in a greenhouse for approximately 21 to 28 days, after which all treated plants were compared to untreated controls and visually evaluated. Plant response ratings, summarized in Table D, are based upon a 0 to 100 scale where 0 is no effect and 100 is complete control. A dash response (−) means no test result.

[3] = system: kochia (Kochia scoparia); test: Test D; conditions: POSTEMERGENCE
Method: as §1, §2, §3

[4] = system: redroot pigweed (Amaranthus retroflexus); test: Test D; conditions: POSTEMERGENCE
Method: as §1, §2, §3

[5] = system: wild buckwheat (Polygonum convolvulus); test: Test D; conditions: POSTEMERGENCE
Method: as §1, §2, §3

[6] = system: lambsquarters (Chenopodium album); test: Test D; conditions: POSTEMERGENCE
Method: as §1, §2, §3

[7] = system: annual bluegrass (Poa annua); test: Test D; design: key: 0 is no effect; 100 is complete control; conditions: PREEMERGENCE
[8] = system: black nightshade (Solanum nigra); test: Test D; design: key: 0 is no effect; 100 is complete control; conditions: PREEMERGENCE
[9] = system: chickweed (Stellaria media); test: Test D; conditions: PREEMERGENCE
[10] = system: Italian ryegrass (Lolium multiflorum); test: Test D; conditions: PREEMERGENCE
[11] = system: kochia (Kochia scoparia); test: Test D; design: key: 0 is no effect; 100 is complete control; conditions: PREEMERGENCE
[12] = system: rape (Brassica napus); test: Test D; design: key: 0 is no effect; 100 is complete control; conditions: PREEMERGENCE
[13] = system: scentless chamomile (Matricaria inodora); test: Test D; conditions: PREEMERGENCE
[14] = system: spring barley (Hordeum vulgare); test: Test D; design: key: 0 is no effect; conditions: PREEMERGENCE
[15] = system: wild buckwheat (Polygonum convolvulus); test: Test D; conditions: PREEMERGENCE
[16] = system: ivyleaf speedwell (Veronica hederaefolia); test: Test D; design: key: 0 is no effect; 100 is complete control; conditions: PREEMERGENCE

Cc1cnc(-c2ccc(C(F)(F)F)cc2)nc1Cc1cccc(OC(F)(F)F)c1 [Compound 15]
Plant response rating, Barnyardgrass ([1]; Rate 125 g/ha): 40 | Plant response rating, Barnyardgrass ([1]; Rate 250 g/ha): 75

CCc1cnc(-c2ccc(C(F)(F)F)cc2)nc1Cc1cccc(C(F)(F)F)c1 [Compound 22]
Plant response rating, Galium ([2]; Rate 62 g/ha): 70 | Plant response rating, Galium ([2]; Rate 125 g/ha): 90 | Plant response rating, Kochia ([3]; Rate 62 g/ha): 50 | Plant response rating, Kochia ([3]; Rate 125 g/ha): 70 | Plant response rating, Redroot pigweed ([4]; Rate 62 g/ha): 50 | Plant response rating, Redroot pigweed ([4]; Rate 125 g/ha): 70 | Plant response rating, Wild buckwheat ([5]; Rate 62 g/ha): 20 | Plant response rating, Wild buckwheat ([5]; Rate 125 g/ha): 20 | Plant response rating, Lambsquarters ([6]; Rate 62 g/ha): 60 | Plant response rating, Lambsquarters ([6]; Rate 125 g/ha): 60 | Plant response rating, Annual bluegras ([7]; Rate 62 g/ha): 20 | Plant response rating, Annual bluegras ([7]; Rate 125 g/ha): 100 | Plant response rating, Annual bluegras ([7]; Rate 250 g/ha): 50 | Plant response rating, Blk nightshade ([8]; Rate 62 g/ha): 10 | Plant response rating, Blk nightshade ([8]; Rate 125 g/ha): 60 | Plant response rating, Blk nightshade ([8]; Rate 250 g/ha): 50 | Plant response rating, Chickweed ([9]; Rate 62 g/ha): 40 | Plant response rating, Chickweed ([9]; Rate 125 g/ha): 70 | Plant response rating, Chickweed ([9]; Rate 250 g/ha): 30 | Plant response rating, I. Ryegrass ([10]; Rate 125 g/ha): 65 | Plant response rating, I. Ryegrass ([10]; Rate 250 g/ha): 75 | Plant response rating, Kochia ([11]; Rate 62 g/ha): 10 | Plant response rating, Kochia ([11]; Rate 125 g/ha): 65 | Plant response rating, Kochia ([11]; Rate 250 g/ha): 60 | Plant response rating, Rape ([12]; Rate 62 g/ha): 20 | Plant response rating, Rape ([12]; Rate 125 g/ha): 100 | Plant response rating, Rape ([12]; Rate 250 g/ha): 50 | Plant response rating, Scentless chamo ([13]; Rate 62 g/ha): 60 | Plant response rating, Scentless chamo ([13]; Rate 125 g/ha): 70 | Plant response rating, Scentless chamo ([13]; Rate 250 g/ha): 70 | Plant response rating, Spring Barley ([14]; Rate 62 g/ha): 0 | Plant response rating, Spring Barley ([14]; Rate 125 g/ha): 10 | Plant response rating, Spring Barley ([14]; Rate 250 g/ha): 2 | Plant response rating, Wild buckwheat ([15]; Rate 125 g/ha): 55 | Plant response rating, Wild buckwheat ([15]; Rate 250 g/ha): 30

CCc1cnc(-n2ccc(C(F)(F)F)n2)nc1Cc1cccc(C(F)(F)F)c1 [Compound 46]
Plant response rating, Ivyleaf speedwe ([16]; Rate 31 g/ha): 100 | Plant response rating, Ivyleaf speedwe ([16]; Rate 62 g/ha): 100 | Plant response rating, Annual bluegras ([7]; Rate 31 g/ha): 60 | Plant response rating, Annual bluegras ([7]; Rate 62 g/ha): 90 | Plant response rating, Blk nightshade ([8]; Rate 31 g/ha): 50 | Plant response rating, Blk nightshade ([8]; Rate 62 g/ha): 50 | Plant response rating, Chickweed ([9]; Rate 31 g/ha): 70 | Plant response rating, Chickweed ([9]; Rate 62 g/ha): 70 | Plant response rating, I. Ryegrass ([10]; Rate 31 g/ha): 60 | Plant response rating, I. Ryegrass ([10]; Rate 62 g/ha): 60 | Plant response rating, Kochia ([11]; Rate 31 g/ha): 60 | Plant response rating, Kochia ([11]; Rate 62 g/ha): 60 | Plant response rating, Rape ([12]; Rate 31 g/ha): 50 | Plant response rating, Rape ([12]; Rate 62 g/ha): 100 | Plant response rating, Scentless chamo ([13]; Rate 31 g/ha): 65 | Plant response rating, Scentless chamo ([13]; Rate 62 g/ha): 70 | Plant response rating, Spring Barley ([14]; Rate 31 g/ha): 30 | Plant response rating, Spring Barley ([14]; Rate 62 g/ha): 5 | Plant response rating, Wild buckwheat ([15]; Rate 31 g/ha): 40 | Plant response rating, Wild buckwheat ([15]; Rate 62 g/ha): 40

Cc1cnc(-n2cnc(C(F)(F)F)n2)nc1Cn1ccc(C(F)(F)F)n1 [Compound 51]
Plant response rating, Ivyleaf speedwe ([16]; Rate 31 g/ha): 100 | Plant response rating, Ivyleaf speedwe ([16]; Rate 62 g/ha): 100 | Plant response rating, Annual bluegras ([7]; Rate 31 g/ha): 85 | Plant response rating, Annual bluegras ([7]; Rate 62 g/ha): 100 | Plant response rating, Blk nightshade ([8]; Rate 31 g/ha): 100 | Plant response rating, Blk nightshade ([8]; Rate 62 g/ha): 95 | Plant response rating, Chickweed ([9]; Rate 31 g/ha): 80 | Plant response rating, Chickweed ([9]; Rate 62 g/ha): 90 | Plant response rating, I. Ryegrass ([10]; Rate 31 g/ha): 60 | Plant response rating, I. Ryegrass ([10]; Rate 62 g/ha): 90 | Plant response rating, Kochia ([11]; Rate 31 g/ha): 85 | Plant response rating, Kochia ([11]; Rate 62 g/ha): 80 | Plant response rating, Rape ([12]; Rate 31 g/ha): 100 | Plant response rating, Rape ([12]; Rate 62 g/ha): 100 | Plant response rating, Scentless chamo ([13]; Rate 31 g/ha): 65 | Plant response rating, Scentless chamo ([13]; Rate 62 g/ha): 70 | Plant response rating, Spring Barley ([14]; Rate 31 g/ha): 70 | Plant response rating, Spring Barley ([14]; Rate 62 g/ha): 80 | Plant response rating, Wild buckwheat ([15]; Rate 31 g/ha): 90 | Plant response rating, Wild buckwheat ([15]; Rate 62 g/ha): 90

Cc1cnc(-n2ccc(C(F)(F)F)n2)nc1Cn1ccc(C(F)(F)F)n1 [Compound 52]
Plant response rating, Galium ([2]; Rate 16 g/ha): 40 | Plant response rating, Galium ([2]; Rate 31 g/ha): 50 | Plant response rating, Galium ([2]; Rate 62 g/ha): 65 | Plant response rating, Galium ([2]; Rate 125 g/ha): 60 | Plant response rating, Kochia ([3]; Rate 16 g/ha): 70 | Plant response rating, Kochia ([3]; Rate 31 g/ha): 70 | Plant response rating, Kochia ([3]; Rate 62 g/ha): 70 | Plant response rating, Kochia ([3]; Rate 125 g/ha): 70 | Plant response rating, Redroot pigweed ([4]; Rate 16 g/ha): 45 | Plant response rating, Redroot pigweed ([4]; Rate 31 g/ha): 60 | Plant response rating, Redroot pigweed ([4]; Rate 62 g/ha): 60 | Plant response rating, Redroot pigweed ([4]; Rate 125 g/ha): 70 | Plant response rating, Wild buckwheat ([5]; Rate 16 g/ha): 60 | Plant response rating, Wild buckwheat ([5]; Rate 31 g/ha): 50 | Plant response rating, Wild buckwheat ([5]; Rate 62 g/ha): 70 | Plant response rating, Wild buckwheat ([5]; Rate 125 g/ha): 80 | Plant response rating, Lambsquarters ([6]; Rate 16 g/ha): 70 | Plant response rating, Lambsquarters ([6]; Rate 31 g/ha): 80 | Plant response rating, Lambsquarters ([6]; Rate 62 g/ha): 80 | Plant response rating, Lambsquarters ([6]; Rate 125 g/ha): 80 | Plant response rating, Annual bluegras ([7]; Rate 31 g/ha): 50 | Plant response rating, Annual bluegras ([7]; Rate 62 g/ha): 100 | Plant response rating, Annual bluegras ([7]; Rate 125 g/ha): 100 | Plant response rating, Blk nightshade ([8]; Rate 31 g/ha): 10 | Plant response rating, Blk nightshade ([8]; Rate 62 g/ha): 40 | Plant response rating, Blk nightshade ([8]; Rate 125 g/ha): 90 | Plant response rating, Chickweed ([9]; Rate 31 g/ha): 30 | Plant response rating, Chickweed ([9]; Rate 62 g/ha): 80 | Plant response rating, Chickweed ([9]; Rate 125 g/ha): 85 | Plant response rating, I. Ryegrass ([10]; Rate 31 g/ha): 30 | Plant response rating, I. Ryegrass ([10]; Rate 62 g/ha): 70 | Plant response rating, I. Ryegrass ([10]; Rate 125 g/ha): 70 | Plant response rating, Kochia ([11]; Rate 31 g/ha): 50 | Plant response rating, Kochia ([11]; Rate 62 g/ha): 80 | Plant response rating, Kochia ([11]; Rate 125 g/ha): 100 | Plant response rating, Rape ([12]; Rate 31 g/ha): 50 | Plant response rating, Rape ([12]; Rate 62 g/ha): 60 | Plant response rating, Rape ([12]; Rate 125 g/ha): 100 | Plant response rating, Spring Barley ([14]; Rate 31 g/ha): 50 | Plant response rating, Spring Barley ([14]; Rate 62 g/ha): 60 | Plant response rating, Spring Barley ([14]; Rate 125 g/ha): 80 | Plant response rating, Wild buckwheat ([15]; Rate 31 g/ha): 40 | Plant response rating, Wild buckwheat ([15]; Rate 62 g/ha): 60

Cc1cnc(-n2ccc(C(F)(F)F)n2)nc1Cc1cccc(C(F)(F)F)c1 [Example 2, 5-methyl-4-[[3-(trifluoromethyl)phenyl]methyl]-2-[3-(trifluoromethyl)-1H-pyrazol-1-yl]pyrimidine]
Plant response rating, Barnyardgrass ([1]; Rate 32 g/ha): 20 | Plant response rating, Barnyardgrass ([1]; Rate 64 g/ha): 95
